# Patent US9980943B2, “Methods of treating muscular dystrophy” (BOARD OF REGENTS OF THE NEVADA SYSTEM OF HIGHER EDUCATION, …, priority 2013, dated 2018)
# How the values were obtained:
# Assay type in all cases: cell-based, mouse
# [1] = test system: α7 integrin (LacZ reporter in α7βgal+/− myoblasts); test: Myoblast α7+/LacZ integrin FDG assay (Burkin assay in myoblasts, 96-well); conditions: α7+/LacZ myoblasts, 96-well
# [2] = test system: β-galactosidase in CMV-LacZ C2C12 myotubes; test: CMV-LacZ secondary screen in C2C12 myotubes (β-Gal stabilizing assay); conditions: for CMV-LACZ in Myotubes (β-galactosidase activity relative to DMSO): CMV-LacZ C2C12 myotubes, 96-well format; for CMV-LACZ in Myotubes, signal relative to DMSO: C2C12 CMV-LacZ myotubes, fold relative to DMSO
# Procedure, shortened: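 β-gal stabilization was measured in C2C12 myoblasts or myotubes stably transfected with a CMV-driven LacZ construct, using the FDG β-gal assay. Compounds were tested in dose-response at 0.5, 1, 5, 10, 20 and 40 μM, with two replicates per point.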
# [3] = test system: α7 integrin (LacZ reporter in α7+/LacZ myotubes); test: Myotube α7 integrin FDG assay (Burkin assay in myotubes, 96-well); conditions: myotubes
Compound,"Burkin Assay in Myoblasts, value relative to DMSO ([1]; 0.5 uM)","Burkin Assay in Myoblasts, value relative to DMSO ([1]; 1 uM)","Burkin Assay in Myoblasts, value relative to DMSO ([1]; 5 uM)","Burkin Assay in Myoblasts, value relative to DMSO ([1]; 10 uM)","Burkin Assay in Myoblasts, value relative to DMSO ([1]; 20 uM)","Burkin Assay in Myoblasts, value relative to DMSO ([1]; 40 uM)",CMV-LACZ in Myotubes (β-galactosidase activity relative to DMSO) ([2]; 5 uM),CMV-LACZ in Myotubes (β-galactosidase activity relative to DMSO) ([2]; 10 uM),CMV-LACZ in Myotubes (β-galactosidase activity relative to DMSO) ([2]; 20 uM),CMV-LACZ in Myotubes (β-galactosidase activity relative to DMSO) ([2]; 40 uM),Burkin Assay in Myotubes (signal relative to DMSO) ([3]; 0.5 uM),Burkin Assay in Myotubes (signal relative to DMSO) ([3]; 1 uM),Burkin Assay in Myotubes (signal relative to DMSO) ([3]; 5 uM),Burkin Assay in Myotubes (signal relative to DMSO) ([3]; 10 uM),Burkin Assay in Myotubes (signal relative to DMSO) ([3]; 20 uM),Burkin Assay in Myotubes (signal relative to DMSO) ([3]; 40 uM),"CMV-LACZ in Myotubes, signal relative to DMSO ([2]; 5 uM)","CMV-LACZ in Myotubes, signal relative to DMSO ([2]; 10 uM)","CMV-LACZ in Myotubes, signal relative to DMSO ([2]; 20 uM)","CMV-LACZ in Myotubes, signal relative to DMSO ([2]; 40 uM)",also measured
COc1ccc(C(=O)O/N=C(\N)c2cccc(C)c2)cc1OC [MLS001165323-01],0.9704,0.9491,0.8821,0.924,0.8743,0.4779,1.072,0.9,1.315,1.488,0.9468,0.9627,1.166,1.153,1.054,1.088,–,–,–,–,–
O=C(c1ccc(Cl)c(S(=O)(=O)N2CCCCC2)c1)N1CCN(Cc2ccccc2)CC1 [MLS001060561-01],0.9961,0.9284,0.8266,0.8878,0.795,0.6318,0.9396,1.002,0.9373,0.6425,0.8047,0.9329,0.9832,0.9977,0.8557,0.9329,–,–,–,–,–
Cc1ccc(-c2nc(C)sc2CC(=O)OCC(=O)Nc2c(F)cccc2F)cc1 [MLS000388722-01],0.93,1.1187,1.1052,1.1175,0.9101,0.9407,–,–,–,–,0.9225,0.9369,1.032,1.042,0.8001,0.9404,0.9569,1.067,1.085,0.8668,–
CCNC(=O)COC(=O)c1cc(-c2ccco2)nc2ccccc12 [MLS000772580-01],0.8487,0.9736,0.8554,0.8513,0.7938,0.7251,–,–,–,–,0.851,0.8999,1.323,0.9474,0.9413,0.8535,0.8986,1.0933,1.029,1.088,–
COc1ccc(-c2csc3ncnc(N4CCN(c5ccccc5[N+](=O)[O-])CC4)c23)cc1 [MLS001149811-01],0.6497,0.8888,1.01,1.022,1,0.6172,0.9566,1.048,1.122,1.65,0.957,0.9993,0.9434,0.9086,0.8456,0.5432,–,–,–,–,–
CC(=O)Nc1c(-c2ccc(Cl)cc2)c(=O)c2ccccc2n1C [MLS001214461-01],1.064,0.9241,0.8964,0.8123,0.8472,0.767,–,–,–,–,1.207,0.9586,1.072,0.9457,1.087,0.8844,0.8137,0.9363,0.9167,0.9566,–
O=C(O)CCCNC(=O)CCn1nnc2ccccc2c1=O [MLS000806880-01],–,–,–,–,–,–,–,–,–,–,–,–,–,–,–,–,0.9654,1.13,0.9145,1.0655,"Burkin Assay in Myoblasts, signal relative to DMSO ([1]; 0.5 uM): 1.097; Burkin Assay in Myoblasts, signal relative to DMSO ([1]; 1 uM): 1.129; Burkin Assay in Myoblasts, signal relative to DMSO ([1]; 5 uM): 1.009; Burkin Assay in Myoblasts, signal relative to DMSO ([1]; 10 uM): 0.9524; Burkin Assay in Myoblasts, signal relative to DMSO ([1]; 20 uM): 0.9957; Burkin Assay in Myoblasts, signal relative to DMSO ([1]; 40 uM): 1.056; Burkin Assay in Myotubes, α7 integrin LacZ reporter signal relative to DMSO ([3]; 0.5 uM): 0.735; Burkin Assay in Myotubes, α7 integrin LacZ reporter signal relative to DMSO ([3]; 1 uM): 0.8731; Burkin Assay in Myotubes, α7 integrin LacZ reporter signal relative to DMSO ([3]; 5 uM): 0.9094; Burkin Assay in Myotubes, α7 integrin LacZ reporter signal relative to DMSO ([3]; 10 uM): 0.996; Burkin Assay in Myotubes, α7 integrin LacZ reporter signal relative to DMSO ([3]; 20 uM): 1.057; Burkin Assay in Myotubes, α7 integrin LacZ reporter signal relative to DMSO ([3]; 40 uM): 0.9353"
